Test results from patent EP1650209A1, “Griseusin derivatives and their use as antitumor agents” (Oncotest GmbH, priority 2004, dated 2006).
Converted amounts (≈) assume the structure as drawn.

Columns and labels:
Test in all cases: Clonogenic assay, colony formation of tumor stem cells from xenografts
Format in all cases: cell-based, human
CXF 1729 = details: Colon, xenograft CXF 1729, colony formation
Protocol: (§1) Using various human cancer xenografts in vitro, the concentrations of compound B which inhibit formation of tumor colonies of tumor stem cells by 50% (IC50) and 70% (IC70) are determined in a clonogenic assay. Specifically, each solid tumor of bladder cancer (BXF 1036 and BXF 1299), cervical cancer (CEXF 633 and CEXF 773), colic cancer (CXF 1103, CXF 158, CXF 1729, CXF 264 and CXF 280), gastric cancer (GXF 251 and GXF 97), head and neck cancer (HNXF 536), liver cancer (LIXF 575), non small cell lung cancer comprising adeno, squamous epithelium and large cell carcinoma (LXFA 1012, LXFA 289, LXFA 297, LXFA 526, LXFA 592, LXFA 629, LXFA 677, LXFE 409, LXFL 1072, LXFL 430LX and LXFL 529), small cell lung cancer (LXFS 650), mammary cancer (MAXF 1162, MAXF 1384, MAXF 401, MAXF 449, MAXF 574, MAXF 583, MAXF 713 and MAXF 857), melanoma (MEXF 1341, MEXF 462, MEXF 535 and MEXF 989), ovary cancer (OVXF 899), pancreatic cancer (PAXF 546 and PAXF 736), prostate cancer (DU-145 and PC3M), pleuramesothelioma (PXF 1752), renal cancer (RXF 1220, RXF 1393, RXF 393, RXF 631 and RXF 944LX), and sarcoma (SXF 1301 and SXF 463) engrafted on RPMI nu/nu thymus aplastic nude mice were explanted, disaggregated by mincing and enzymatic digestion for 50 minutes using 125 U/mL DNAse I, 41 U/mL collagenase IV, 100 U/ml hyaluronidase III, and 1 U/mL dispase I, and passed through sieves of 200 µm and 50 µm mesh size and washed twice with sterile PBS-buffer to remove cell aggregated from single cells. The clonogenic assay was performed in a 24 multiwell format. Each of the resulting single cell suspensions was added at a density of 2·10^4 to 6·10^4 cells per well to 0.2 ml of Iscove's Modified Dulbecco's Medium (IMDM) containing 20% fetal calf serum and 0.01% gentamicin supplemented with 0.4% (w/v) agar, and plated onto a bottom layer consisting of the same culture medium containing 0.75% (w/v) agar. After 24 hours IMDM containing 20% fetal calf serum and 0.01 % gentamicin, together with a test compound, was added there to. Then, the plate was incubated at 37°C for 10 to 20 days in a humidified atmosphere of air containing 7.5% CO2. Within this period, in vitro tumor growth led to the formation of colonies with a diameter of > 50µm. Colony counts were performed with an automatic image analysis system (OMNICON 3600). 24 hours prior to evaluation, vital colonies were stained with a vital staining dye. Therefore, 100 µl of a sterile aqueous solution of 2-(4-iodophenyl)-3-(4-nitrophenyl)-5-phenyltetrazolium chloride (1 mg/ml) were added to each well of the plate, and plates were incubated for 24 hours at 37°C in a humidified atmosphere of air containing 7.5% CO2. Inhibition of colony formation was expressed as test versus untreated control (T/C-value [%]). IC50 and IC70 values were determined by plotting compound concentration versus cell viability. Table 3: Inhibition of Colony Formation of Tumor Stem Cells by griseusin derivative B

DU-145 = details: Prostate, xenograft DU-145, colony formation
Protocol: as §1

GXF 251 = details: Stomach, xenograft GXF 251, colony formation
Protocol: as §1

HNXF 536 = details: Head and Neck, xenograft HNXF 536, colony formation
Protocol: as §1

LIXF 575 = details: Liver, xenograft LIXF 575, colony formation
Protocol: as §1

LXFA 289 = details: Lung, non small cell, xenograft LXFA 289, colony formation
Protocol: as §1

LXFA 297 = details: Lung, non small cell, xenograft LXFA 297, colony formation
Protocol: as §1

LXFA 629 = details: Lung, non small cell, xenograft LXFA 629, colony formation
Protocol: as §1

LXFE 409 = details: Lung, non small cell, xenograft LXFE 409, colony formation
Protocol: as §1

MEXF 462 = details: Melanoma, xenograft MEXF 462, colony formation
Protocol: as §1

OVXF 899 = details: Ovary, xenograft OVXF 899, colony formation
Protocol: as §1

PAXF 546 = details: Pancreas, xenograft PAXF 546, colony formation
Protocol: as §1

RXF 393 = details: Kidney, xenograft RXF 393, colony formation
Protocol: as §1

LXFS 538 = details: Lung, small cell, xenograft LXFS 538, colony formation

## C[C@@H]1CC(=O)[C@@H](O)[C@]2(O1)O[C@@H]1CC(=O)O[C@@H]1C1=C2C(=O)c2c(O)cccc2C1=O [Compound B, 4'-dehydro-deacetylgriseusin A]
CXF 1729
  IC50: 0.453 µg/mL (≈ 1.13 µM)
  IC70: 0.630 µg/mL (≈ 1.57 µM)
DU-145
  IC50: 1.086 µg/mL (≈ 2.71 µM)
  IC70: 1.644 µg/mL (≈ 4.11 µM)
GXF 251
  IC50: 0.333 µg/mL (≈ 0.832 µM)
  IC70: 0.677 µg/mL (≈ 1.69 µM)
HNXF 536
  IC50: 0.350 µg/mL (≈ 0.874 µM)
  IC70: 0.547 µg/mL (≈ 1.37 µM)
LIXF 575
  IC50: 0.616 µg/mL (≈ 1.54 µM)
  IC70: 0.764 µg/mL (≈ 1.91 µM)
LXFA 289
  IC50: 0.218 µg/mL (≈ 0.545 µM)
  IC70: 0.425 µg/mL (≈ 1.06 µM)
LXFA 297
  IC50: 1.461 µg/mL (≈ 3.65 µM)
  IC70: 2.179 µg/mL (≈ 5.44 µM)
LXFA 629
  IC50: 0.808 µg/mL (≈ 2.02 µM)
  IC70: 1.276 µg/mL (≈ 3.19 µM)
LXFE 409
  IC50: 1.732 µg/mL (≈ 4.33 µM)
  IC70: 2.249 µg/mL (≈ 5.62 µM)
MEXF 462
  IC50: 1.666 µg/mL (≈ 4.16 µM)
  IC70: 2.152 µg/mL (≈ 5.38 µM)
OVXF 899
  IC50: 0.468 µg/mL (≈ 1.17 µM)
  IC70: 0.731 µg/mL (≈ 1.83 µM)
PAXF 546
  IC50: 0.168 µg/mL (≈ 0.42 µM)
  IC70: 0.420 µg/mL (≈ 1.05 µM)
RXF 393
  IC50: 0.150 µg/mL (≈ 0.375 µM)
  IC70: 0.212 µg/mL (≈ 0.53 µM)
LXFS 538
  IC50: 0.307 µg/mL (≈ 0.767 µM)
  IC70: 0.502 µg/mL (≈ 1.25 µM)
